Counter-ions that a name gives are not always drawn. Like-named read-outs stand apart in the source and are kept apart here.
What was measured:
[1] = tested on: IL-17 production by CD4 T cells under conditions which favor Th17 differentiation; assay: Human Th17 assay (IL-17 production by CD4 T cells); assay type: cell-based; details: Homo sapiens, CD4+ T; read-out: Human Th17 Assay, IC50
Protocol: The human Th17 assay tests the effect of RORγt modulatory compounds on IL-17 production by CD4 T cells under conditions which favor Th17 differentiation. Total CD4^+ T cells were isolated from the peripheral blood mononuclear cells (PBMC) of healthy donors using a CD4^+ T cell isolation kit II, following the manufacturer's instructions (Miltenyi Biotec). […] 50 μL of compound at titrated concentrations in DMSO were added into each well at final DMSO concentration at 0.2%. Cells were incubated for 1 hour, then 50 μL of Th17 cell differentiation medium was added to each well. […] Cells were cultured at 37° C. and 5% CO2 for 3 days. Supernatants were collected and the accumulated IL-17 in culture was measured by using MULTI-SPOT® Cytokine Plate following manufacture's instruction (Meso Scale Discovery). The plate was read using Sector Imager 6000, and IL-17 concentration was extrapolated from the standard curve. The IC50s were determined by GraphPad.

[2] = target: human RORγt ligand binding domain (RORγt LBD) (Homo sapiens (Human), UniProt P51449); assay: RORγt ThermoFluor® assay (thermal shift binding)
Sequence of human RORγt ligand binding domain (RORγt LBD) (P51449 other isoform, or with tags, fused parts or gaps): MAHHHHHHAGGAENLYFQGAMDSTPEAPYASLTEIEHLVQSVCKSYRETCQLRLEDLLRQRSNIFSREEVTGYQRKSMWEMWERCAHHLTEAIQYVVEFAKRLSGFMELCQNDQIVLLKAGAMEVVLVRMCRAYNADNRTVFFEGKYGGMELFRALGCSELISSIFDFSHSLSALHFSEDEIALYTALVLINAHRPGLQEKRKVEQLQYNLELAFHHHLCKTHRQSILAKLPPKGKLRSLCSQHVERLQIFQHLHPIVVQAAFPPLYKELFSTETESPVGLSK
Outline: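 Thermal shift with 0.065 mg/mL RORγt LBD and 60 μM 1,8-ANS in 100 mM Hepes pH 7.0, 10 mM NaCl, 2.5 mM GSH, 0.002% Tween-20.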

full-length human RORγt = full-length human RORγt (Homo sapiens (Human), UniProt P51449); assay: RORγt (full-length human) reporter assay, conditions A or B, HEK293T cells; assay type: cell-based; details: for inhibition at 0.67 µM: 0.67 μM compound concentration (footnote ****); for IC50: RORγt (FL) Reporter Assay A or B, IC50, HEK293T cells; for inhibition at 3 µM: 3 μM compound concentration (footnote *)
Sequence of full-length human RORγt (P51449 other isoform, or with tags, fused parts or gaps): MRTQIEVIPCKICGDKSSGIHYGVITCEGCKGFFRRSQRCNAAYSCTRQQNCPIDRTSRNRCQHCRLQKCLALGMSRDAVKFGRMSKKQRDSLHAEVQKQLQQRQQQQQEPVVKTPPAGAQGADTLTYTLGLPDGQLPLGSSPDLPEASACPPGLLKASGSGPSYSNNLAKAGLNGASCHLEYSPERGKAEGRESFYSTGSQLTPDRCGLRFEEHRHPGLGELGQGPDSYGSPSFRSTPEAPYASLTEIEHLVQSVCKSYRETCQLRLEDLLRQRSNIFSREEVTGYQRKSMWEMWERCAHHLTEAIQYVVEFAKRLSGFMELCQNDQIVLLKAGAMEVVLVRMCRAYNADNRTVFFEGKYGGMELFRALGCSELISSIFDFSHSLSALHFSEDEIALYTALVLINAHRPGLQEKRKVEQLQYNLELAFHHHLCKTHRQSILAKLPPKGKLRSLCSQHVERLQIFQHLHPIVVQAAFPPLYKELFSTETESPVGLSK
Outline: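 After 16–20 h, dual firefly/Renilla luciferase luminescence was read. Firefly signal was normalized to DMSO and saturating reference compound, then to Renilla, and fitted for IC50; % inhibition is versus DMSO.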

[3] = HEK-293T, read-out: RORγt (FL) Reporter Assay A or B, % inhibition

Row | Structure (SMILES) | IC50 [1] [nM] | Kd ([2]; ThermoFluor® Assay, Kd) [nM] | inhibition at 0.67 µM (full-length human RORγt; [3]) [%] | IC50 (full-length human RORγt) [nM] | inhibition at 1 µM (full-length human RORγt; HEK-293T, 1 μM compound concentration (footnote ***), read-out: RORγt (FL) Reporter Assay A or B, % inhibition) [%] | inhibition at 3 µM (full-length human RORγt; [3]) [%] | Kd ([2]; read-out: ThermoFluor® Assay, Kd) [nM] | inhibition at 2 µM (full-length human RORγt; HEK-293T, 2 μM compound concentration, read-out: RORγt (FL) Reporter Assay A or B, % inhibition) [%]
1 | CCn1nc(C(=O)NC[C@H]2CC[C@H](S(C)(=O)=O)CC2)c(Cl)c1-c1ccc(C[C@H](C)C(F)(F)F)cc1OC (single isomer, unassigned) [Example 3, 4-Chloro-1-ethyl-5-(2-methoxy-4-((S*)-3,3,3-trifluoro-2-methylpropyl)phenyl)-N-(((1r,4R)-4-(methylsulfonyl)cyclohexyl)methyl)-1H-pyrazole-3-carboxamide] | 15 | 0.63 | 98 | 9 |  |  |  | 
2 | CCn1nc(C(=O)NC[C@]2(O)CC[C@@H](S(C)(=O)=O)C[C@H]2O)c(Cl)c1-c1ccc(CC(C)(C)C(F)(F)F)cc1OC(F)F (single isomer, unassigned) [Example 46, 4-Chloro-5-(2-(difluoromethoxy)-4-(3,3,3-trifluoro-2,2-dimethylpropyl)phenyl)-N-(((1R*,2R*,4R*)-1,2-dihydroxy-4-(methylsulfonyl)cyclohexyl)methyl)-1-ethyl-1H-pyrazole-3-carboxamide] | 13 | 0.42 | 92 | 5 |  |  |  | 
3 | CCn1nc(C(=O)NC[C@]2(O)CC[C@@H](S(C)(=O)=O)C[C@H]2O)c(Cl)c1-c1ccc(C[C@H](C)C(F)(F)F)cc1OC(F)F (stereo in doubt) [Example 53, 4-Chloro-5-(2-(difluoromethoxy)-4-((S*)-3,3,3-trifluoro-2-methylpropyl)phenyl)-N-(((1R*,2R*,4R*)-1,2-dihydroxy-4-(methylsulfonyl)cyclohexyl)methyl)-1-ethyl-1H-pyrazole-3-carboxamide] | 13 | 1.6 |  | 6.3 | 99 |  |  | 
4 | CCn1nc(C(=O)NC[C@]2(O)CC[C@@H](S(C)(=O)=O)C[C@H]2O)c(C)c1-c1ccc(C[C@H](C)C(F)(F)F)cc1OC(F)F (stereo in doubt) [Example 58, 5-(2-(difluoromethoxy)-4-((S*)-3,3,3-trifluoro-2-methylpropyl)phenyl)-N-(((1R*,2R*,4R*)-1,2-dihydroxy-4-(methylsulfonyl)cyclohexyl)methyl)-1-ethyl-4-methyl-1H-pyrazole-3-carboxamide] | 19 | 2.6 |  | 9.7 |  | 100 |  | 
5 | CCn1nc(C(=O)NC[C@]2(N)CC[C@@H](S(C)(=O)=O)CC2)c(Cl)c1-c1ccc(CC(C)(C)C(F)(F)F)cc1OC(F)F [Example 19, N-(((1s*,4s*)-1-Amino-4-(methylsulfonyl)cyclohexyl)methyl)-4-chloro-5-(2-(difluoromethoxy)-4-(3,3,3-trifluoro-2,2-dimethylpropyl)phenyl)-1-ethyl-1H-pyrazole-3-carboxamide 2,2,2-trifluoroacetic acid salt] | 14 |  |  |  |  | 122 |  | 
6 | CCn1nc(C(=O)NC[C@H]2CC[C@H](S(C)(=O)=O)CC2)c(Cl)c1-c1ccc(N[C@H](C)C(F)(F)F)cc1OC [Example 23, 4-chloro-1-ethyl-5-(2-methoxy-4-(((R)-1,1,1-trifluoropropan-2-yl)amino)phenyl)-N-(((1 r,4R)-4-(methylsulfonyl)cyclohexyl)methyl)-1H-pyrazole-3-carboxamide] | 38 |  |  | 28 |  |  | 4.6 | 104
7 | CCn1nc(C(=O)NC[C@H]2CC[C@H](S(C)(=O)=O)CC2)c(Cl)c1-c1ccc(CC(C)(C)C(F)(F)F)cc1OC [Example 44, 4-chloro-1-ethyl-5-(2-methoxy-4-(3,3,3-trifluoro-2,2-dimethylpropyl)phenyl)-N-(((1r,4r)-4-(methylsulfonyl)cyclohexyl)methyl)-1H-pyrazole-3-carboxamide] | 5.2 |  | 96 |  |  |  |  | 

— patent publication US10975037B2 (priority 2018, dated 2021)
